Three molecules from patent US7015221B2, “2,4-disubstituted triazine derivatives” (Janssen Pharmaceutica, N.V., priority 1998, dated 2006) can be followed below.

Where only a bound is given, the exact number is not on record here.

Series [1] can be described thus: Cytotoxicity in mock-infected MT-4 cells (MTT). The format is cell-based. To be noted: human, concentration reducing absorbance of mock-infected MT-4 control by 50%.

As for `Cc1cc(C)c(Oc2ncnc(Nc3ccc(C#N)cc3)n2)c(C)c1` [Compound 2, 4-[[4-(2,4,6-trimethylphenoxy)-1,3,5-triazin-2-yl]amino]benzonitrile], the CC50 in series [1] was greater than 100 µM.
In turn, `Cc1cc(C)c(Sc2ncnc(Nc3ccc(C#N)cc3)n2)c(C)c1` [Compound 4, 4-[[4-[(2,4,6-trimethylphenyl)thio]-1,3,5-triazin-2-yl]amino]benzonitrile] had a CC50 in series [1] greater than 100 µM.
For `CC(C)c1cc(Br)c(Nc2ncnc(Nc3ccc(C#N)cc3)n2)c(Br)c1` [Compound 8, 4-[[4-[[2,6-dibromo-4-(1-methylethyl)phenyl]amino]-1,3,5-triazin-2-yl]amino]benzonitrile], the melting point lay in the range of 245 to 247 °C.
